“And” between values parts separate entries of the source, which are not always exact repeats. Equal entries are not always repeated.
Legend:
[1] = system: HepG2/C3A organoids; assay: Neutral lipid and phospholipid staining of HepG2/C3A organoids on chip; assay type: cell-based, human; conditions: p<0.001, n=9
[2] = system: E6/E7^LOW human hepatocytes; assay: Steatosis and phospholipidosis, HCS LipidTOX detection kit, hepatocyte cultures; assay type: cell-based
Method: Quantification of Apoptotic index was performed using DeadEnd™ fluorometric TUNEL System (Promega) according to manufacturer directions. Briefly, cells were treated with TC20 concentrations of compounds dissolved in culture medium for 24 hours, and subsequently fixed in 4% Paraformaldehyde (PFA). Cells were then permeabilized and exposed to fluorescein-12-dUTP and terminal deoxynucleotidyl transferase (TdT). The reaction was subsequently stopped and the cells counterstained with 1 μg/mL Hoechst 33258. Apoptotic cells were positive for green fluorescence in the nucleus. Percentage apoptosis was defined as the number of TUNEL positive nuclei normalized to Hoechst 33258 positive nuclei. Quantification of Steatosis was performed using HCS LipidTOX™ Phospholipidosis and Steatosis Detection Kit (ThermoFisher). Briefly, differentiated cells were incubated with different concentrations of compounds dissolved in culture medium and 1× Phospholipidosis Detection Reagent for 48 hours, subsequently fixed in 4% PFA. Cells were then stained with 1× LipidTOX™ for 20 minutes and counterstained with 1 μg/mL Hoechst 33258. Staining intensity was normalized to number of Hoechst 33258 positive nuclei. Quantification of Bile Secretion was performed using 5(6)-carboxy-2′,7′-dichlorofluorescein diacetate (CDFDA) staining. Briefly, differentiated cells were incubated with different concentrations of compounds dissolved in culture medium for 24 hours. Cells were then treated with 10 μg/mL CDFDA and 1 μg/mL Hoechst 33342 for 30 minutes. Incubation medium was removed and cultures washed with ice-cold PBS containing calcium and magnesium. Staining intensity was normalized to number of Hoechst 33342 positive nuclei. Analysis excluded Intracellular CDFDA staining based on intensity and phase images. All quantifications were made in comparison to cells treated with melatonin as negative control.
Quantification of Apoptotic index was performed using DeadEnd™ fluorometric TUNEL System (Promega) according to manufacturer directions. Briefly, cells were treated with TC20 concentrations of compounds dissolved in culture medium for 24 hours, and subsequently fixed in 4% Paraformaldehyde (PFA). Cell were then permeabilized and exposed to fluorescein-12-dUTP and terminal deoxynucleotidyl transferase (TdT). The reaction was subsequently stopped and the cells counterstained with 1 μg/mL Hoechst 33258. Apoptotic cells were positive for green fluorescence in the nucleus. […] Quantification of Steatosis was performed using HCS LipidTOX™ Phospholipidosis and Steatosis Detection Kit (ThermoFisher). […] Quantification of Bile Secretion was performed using 5(6)-carboxy-2′,7′-dichlorofluorescein diacetate (CDFDA) staining. […] All quantifications were made in comparison to cells treated with melatonin as negative control.

[3] = system: E6/E7^LOW hepatocytes; conditions: flux balance analysis, below threshold of cellular damage; Valproate sustained, Stavudine transient
Method: According to some embodiments of the invention there is a sensor-integrated liver on chip array in which oxygen is monitored using two-frequency phase modulation of tissue-embedded phosphorescent microprobes, while glucose, lactate and temperature are measured in real time using microfluidic electrochemical sensors. Such a microphysiological platform permits the calculation of dynamic changes in metabolic fluxes around central carbon metabolism, producing a unique metabolic fingerprint of the liver's response to stimuli.

[4] = cited from earlier work
[5] = system: HepG2/C3A organoids; assay: Real-time oxygen uptake toxicity (TC50, time to onset, lowest exposure level) in differentiated HepG2/C3A organoids; assay type: cell-based, human; conditions: for TC50: oxygen uptake; for lowest exposure level (LEL): horizontal asymptote, onset of damage at infinite time
Method: A suspension of HepG2/C3A cells and CPOx-50-RuP beads (Colibri Photonics, Germany) were suspended in 2.5 mg/ml rat tail collagen type I (Corning, USA) at a cell density of 7×10^5 cells/μl. A volume of 1.1 μl of the gel-imbedded mixture was injected into each microwell and left to form spontaneously until their metabolic activity stabilized around day 4.
Fifty-micrometer-diameter polystyrene microbeads were loaded with ruthenium-phenanthroline-based phosphorescence dye (CPOx-50-RuP). […] Oxygen acts as a quencher, leading to a decrease in decay time and signal intensity with increasing concentration. The present inventors chose to measure decay time, rather than signal intensity, as it is not sensitive to changes in probe concentration or excitation intensity over the course of the experiment. The signal was measured using the OPAL system (Colibri Photonics, Germany) that comprises of a control module, 532 nm LED excitation source, and a photomultiplier (PMT) detector mounted on the ocular of an IX81 Olympus microscope (Olympus, Japan). A filter cube with 531/40 (Ex), 555, 607/70 (Em) was inserted in the optical light path during measurements. To accurately measure decay time, the present inventors chose phase modulation in which sinusoidal amplitude-modulated light is shifted in phase due to oxygen quenching. To overcome the superposition of in-phase background fluorescence that alters the phase of the detected signal, the present inventors used a novel 53.5 and 31.3 kHz two-frequency phase modulation that allowed to screen out the interference [Schmalzlin E., et al., 2005. Biophysical journal, 89: 1339-1345; Papkovsky, D. B. et al., 2004. Methods in enzymology, 381, 715-735; Ast, C., et al., 2012. Sensors (Basel), 12: 7015-7032; Engelhard, S., et al., 2006. Analytical and bioanalytical chemistry, 384: 1107-1112; Prill, D. et al., 2016, Archives of toxicology, 90: 1181-1191]. Measurements were carried out by averaging five consecutive 4-s exposures. Measurements were taken every 15 minutes. Under similar conditions, 28 days of measurement of organoids was done with no apparent phototoxicity, signal drift, or relevant loss of signal intensity (Schmalzlin E., et al., 2005. Biophysical journal, 89: 1339-1345). Assessment of Cellular Toxicity and Time to Onset
Organoids were exposed to different concentrations of compounds dissolved in culture medium. Cell viability was determined by oxygen uptake following 24 hours of exposure unless otherwise noted. TC50 concentrations were determined using MATLAB by sigmoidal curve fitting (Wenner, M. M. et al., 2011, J Appl Physiol (1985), 111: 1703-1709; Prentice, R. L. et al., 1976, Biometrics, 32: 761-768). Time to onset was analyzed by MATLAB based on LPF and trend assessment.
To find the asymptotic concentration for which damage occurs only at infinite exposure time, the present inventors used a previously developed model for accumulative drug exposure (El-Kareh et al., 2000. Neoplasia, 2: 325-338; Currie, G. M. 2018. J Nucl Med Technol, DOI: 10.2967/jnmt.117.199588). The model is based on the steady-state dynamics of flux accumulation, using a linear first-order approximation of the cell membrane. The flux behavior is described by
where J(C) is the concentration dependent flux, Jmin is the minimal flux that will cause an effect, t is time of exposure and |τ is a drug-cell specific constant accounting reaction dynamics (Gowrishankar et al., 2003. Proceedings of the National Academy of Sciences of the United States of America, 100: 3203-3208; Kotnik T. et al., 2000. IEEE Trans Biomed Eng, 47: 1074-1081). In the present case, t is the Time to Onset (TTO) of damage creating a bi-asymptotic behavior. This adapted model is used to describe lowest exposure level (LEL) under first order, steady state assumptions, as
Real-time oxygen measurements were performed optically using on-chip lifetime-based luminescence quenching (LBLQ). […]

increase in the amount of intracellular lipids [1]: 4 fold
Compound: CCCC(CCC)C(=O)O [Valproate, 2-n-propylpentanoic acid]
phospholipidosis [2]: Evidence of phospholipidosis was seen
neutral lipids ([2]; p<0.001, n=4): strong and significant increase
increase in lipogenesis [3]: 15%
patients with evidence of steatosis ([4]; abdominal ultrasound): 61%
patients with elevated liver enzymes ([4]; patients on therapy): Over 40%
TC50 ([5]; at 24 hours): 27 mM
TC50 ([5]; at 42 hours): 14 mM and 14 ± 2 mM
Time to onset (TTO) of response ([5]; dose-dependent range over concentrations tested): 6 to 36 h
lowest exposure level (LEL) ([5]; ± standard error): 280 ± 97 µM
lowest exposure level (LEL) ([5]; ± standard error of curve fit): 280 ± 97 µM
TC50 plateau value as a function of time ([5]; plateau of TC50 over time): around 5 mM
direct mitochondrial damage ([5]; sub-toxic levels): no indication of direct mitochondrial damage

Reference: patent publication US12631620B2, “Methods of generating organoids for high throughput screening of drugs” (Yissum Research Development Company of the Hebrew …, priority 2019, dated 2026)
